Data published in US8933089B2, “HIV inhibiting 5-amido substituted pyrimidines” (Janssen R & D Ireland, priority 2006, dated 2015).
Values belong to the compound of their own block, whether it stands above or below them.

Tests used:
HIV strain Y188L = experiment: Cellular anti-HIV assay in MT4 LTR-EGFP cells, mutant Y188L; assay type: cell-based, HIV-1; conditions: Human immunodeficiency virus 1, read-out: Y188L pEC50 (converted)
Protocol: (§1) Because of the increasing emergence of drug resistant HIV strains, the present compounds were tested for their potency against clinically isolated HIV strains harbouring several mutations. These mutations are associated with resistance to reverse transcriptase inhibitors and result in viruses that show various degrees of phenotypic cross-resistance to the currently commercially available drugs such as for instance AZT and delavirdine.
(§2) The antiviral activity of the compound of the present invention has been evaluated in the presence of wild type HIV and HIV mutants bearing mutations at the reverse transcriptase gene. The activity of the compounds is evaluated using a cellular assay which was performed according to the following procedure.
(§3) The human T-cell line MT4 is engineered with Green Fluorescent Protein (GFP) and an HIV-specific promoter, HIV-1 long terminal repeat (LTR). This cell line is designated MT4 LTR-EGFP, and can be used for the in vitro evaluation of anti-HIV activity of investigational compounds. In HIV-1 infected cells, the Tat protein is produced which upregulates the LTR promotor and finally leads to stimulation of the GFP reporter production, allowing to measure ongoing HIV-infection fluorometrically. Analogously, MT4 cells are engineered with GFP and the constitutional cytomegalovirus (CMV) promotor. This cell line is designated MT4 CMV-EGFP, and can be used for the in vitro evaluation of cytotoxicity of investigational compounds. In this cell line, GFP levels are comparably to those of infected MT4 LTR-EGFP cells. Cytotoxic investigational compounds reduce GFP levels of mock-infected MT4 CMV-EGFP cells.
(§4) Effective concentration values such as 50% effective concentration (EC50) can be determined and are usually expressed in μM. An EC50 value is defined as the concentration of test compound that reduces the fluorescence of HIV-infected cells by 50%. The 50% cytotoxic concentration (CC50 in μM) is defined as the concentration of test compound that reduces fluorescence of the mock-infected cells by 50%. The ratio of CC50 to EC50 is defined as the selectivity index (SI) and is an indication of the selectivity of the anti-HIV activity of the inhibitor. The ultimate monitoring of HIV-1 infection and cytotoxicity is done using a scanning microscope. Image analysis allows very sensitive detection of viral infection. Measurements are done before cell necrosis, which usually takes place about five days after infection, in particular measurements are performed three days after infection.
(§5) The columns IIIB, L100I, etc. in the table list the pEC50 values against various strains IIIB, L100I, etc.

HIV strain L100I + K103N = experiment: Cellular anti-HIV assay in MT4 LTR-EGFP cells, mutant L100I + K103N; assay type: cell-based, HIV-1; conditions: Human immunodeficiency virus 1, 72 h, read-out: L100I + K103N pEC50 (converted)
Protocol: as §1, §2, §3, §4, §5

HIV strain K103N + Y181C = experiment: Cellular anti-HIV assay in MT4 LTR-EGFP cells, mutant K103N + Y181C; assay type: cell-based, HIV-1; conditions: Human immunodeficiency virus 1, 72 h, read-out: K103N + Y181C pEC50 (converted)
Protocol: as §1, §2, §3, §4, §5

HIV strain MDR = experiment: Cellular anti-HIV assay in MT4 LTR-EGFP cells, MDR strain; assay type: cell-based, HIV-1; conditions: Human immunodeficiency virus 1, read-out: MDR pEC50 (converted)
Protocol: as §1, §2, §3, §4, §5
MDR refers to a strain that contains mutations L100I, K103N, Y181C, E138G, V1791, L2214F, V278V/I and A327A/V in HIV reverse transcriptase.

HIV strain L100I = experiment: Cellular anti-HIV assay in MT4 LTR-EGFP cells, mutant L100I; assay type: cell-based, HIV-1; conditions: Human immunodeficiency virus 1, read-out: L100I pEC50 (converted)
Protocol: as §1, §2, §3, §4, §5

[1] = system: HIV strain IIIB (wild type); experiment: Cellular anti-HIV assay in MT4 LTR-EGFP cells, strain IIIB (wild type); selectivity index versus cytotoxicity in mock-infected MT4 CMV-EGFP cells; assay type: cell-based, HIV-1; conditions: for EC50: Human immunodeficiency virus 1, 72 h, wild type HIV strain IIIB, MT4 LTR-EGFP cells, fluorescence, three days after infection, read-out: IIIB pEC50 (converted); for IIIB pSi: selectivity index = ratio of CC50 (mock-infected MT4 CMV-EGFP cells) to EC50 (IIIB), given as p value
Protocol: as §2, §3, §4, §5
Strain IIIB is wild type HIV strain

HIV strain Y181C = experiment: Cellular anti-HIV assay in MT4 LTR-EGFP cells, mutant Y181C; assay type: cell-based, HIV-1; conditions: Human immunodeficiency virus 1, read-out: Y181C pEC50 (converted)
Protocol: as §1, §2, §3, §4, §5

HIV strain K103N = experiment: Cellular anti-HIV assay in MT4 LTR-EGFP cells, mutant K103N; assay type: cell-based, HIV-1; conditions: Human immunodeficiency virus 1, read-out: K103N pEC50 (converted)
Protocol: as §1, §2, §3, §4, §5

melting point: > 250 °C
SMILES: Cc1cc(/C=C/C#N)cc(C)c1Nc1nc(Nc2ccc(C#N)cc2)ncc1C(=O)N1CCOCC1

melting point: > 250 °C
SMILES: COc1ccccc1NC(=O)c1cnc(Nc2ccc(C#N)cc2)nc1Nc1c(C)cc(/C=C/C#N)cc1C

SMILES: Cc1cc(/C=C/C#N)cc(C)c1Nc1nc(Nc2ccc(C#N)cc2)ncc1C(=O)NCCCN(C)C [Compound 43]
EC50 (HIV strain Y188L): 79.4 nM
EC50 (HIV strain L100I + K103N): 126 nM
EC50 (HIV strain K103N + Y181C): 79.4 nM
EC50 (HIV strain MDR): 3160 nM
EC50 (HIV strain L100I): 50.1 nM
EC50 [1]: 12.6 nM
IIIB pSi [1]: >3.30
EC50 (HIV strain Y181C): 25.1 nM
EC50 (HIV strain K103N): 10 nM

SMILES: Cc1cc(/C=C/C#N)cc(C)c1Nc1nc(Nc2ccc(C#N)cc2)ncc1C(=O)NCCc1ccccn1 [Compound 44]
EC50 (HIV strain Y188L): 7.94 nM
EC50 (HIV strain L100I + K103N): 31.6 nM
EC50 (HIV strain K103N + Y181C): 10 nM
EC50 (HIV strain MDR): 1260 nM
EC50 (HIV strain L100I): 12.6 nM
EC50 [1]: 2 nM
IIIB pSi [1]: >4.10
EC50 (HIV strain Y181C): 10 nM
EC50 (HIV strain K103N): 2.51 nM

SMILES: Cc1cc(/C=C/C#N)cc(C)c1Nc1nc(Nc2ccc(C#N)cc2)ncc1C(=O)NCCc1ccc(S(N)(=O)=O)cc1 [Compound 47]
EC50 (HIV strain Y188L): 100 nM
EC50 (HIV strain L100I + K103N): 126 nM
EC50 (HIV strain K103N + Y181C): 126 nM
EC50 (HIV strain MDR): 501 nM
EC50 (HIV strain L100I): 63.1 nM
EC50 [1]: 20 nM
IIIB pSi [1]: 3.10
EC50 (HIV strain Y181C): 50.1 nM
EC50 (HIV strain K103N): 25.1 nM

SMILES: Cc1cc(/C=C/C#N)cc(C)c1Nc1nc(Nc2ccc(C#N)cc2)ncc1C(=O)NCCc1cccs1 [Compound 48]
EC50 (HIV strain Y188L): 316 nM
EC50 (HIV strain L100I + K103N): 501 nM
EC50 (HIV strain K103N + Y181C): 200 nM
EC50 (HIV strain MDR): 10000 nM
EC50 (HIV strain L100I): 126 nM
EC50 [1]: 20 nM
IIIB pSi [1]: 3.10
EC50 (HIV strain Y181C): 126 nM
EC50 (HIV strain K103N): 20 nM

SMILES: Cc1cc(/C=C/C#N)cc(C)c1Nc1nc(Nc2ccc(C#N)cc2)ncc1C(=O)NCCCO [Compound 49]
EC50 (HIV strain Y188L): 79.4 nM
EC50 (HIV strain L100I + K103N): 63.1 nM
EC50 (HIV strain K103N + Y181C): 50.1 nM
EC50 (HIV strain MDR): 501 nM
EC50 (HIV strain L100I): 20 nM
EC50 [1]: 15.8 nM
IIIB pSi [1]: 3.00
EC50 (HIV strain Y181C): 79.4 nM
EC50 (HIV strain K103N): 15.8 nM

SMILES: Cc1cc(/C=C/C#N)cc(C)c1Nc1nc(Nc2ccc(C#N)cc2)ncc1C(=O)NCCN1CCCC1 [Compound 51]
EC50 (HIV strain Y188L): 100 nM
EC50 (HIV strain L100I + K103N): 126 nM
EC50 (HIV strain K103N + Y181C): 63.1 nM
EC50 (HIV strain MDR): 2510 nM
EC50 (HIV strain L100I): 79.4 nM
EC50 [1]: 3.98 nM
IIIB pSi [1]: 3.00
EC50 (HIV strain Y181C): 63.1 nM
EC50 (HIV strain K103N): 6.31 nM

SMILES: Cc1cc(/C=C/C#N)cc(C)c1Nc1nc(Nc2ccc(C#N)cc2)ncc1C(=O)NCCO [Compound 53]
EC50 (HIV strain Y188L): 31.6 nM
EC50 (HIV strain L100I + K103N): 25.1 nM
EC50 (HIV strain K103N + Y181C): 31.6 nM
melting point: > 250 °C
EC50 (HIV strain MDR): 501 nM
EC50 (HIV strain L100I): 5.01 nM
EC50 [1]: 3.16 nM
IIIB pSi [1]: >3.90
EC50 (HIV strain Y181C): 20 nM
EC50 (HIV strain K103N): 6.31 nM

SMILES: COCCNC(=O)c1cnc(Nc2ccc(C#N)cc2)nc1Nc1c(C)cc(/C=C/C#N)cc1C [Compound 54]
EC50 (HIV strain Y188L): 10 nM
EC50 (HIV strain L100I + K103N): 15.8 nM
EC50 (HIV strain K103N + Y181C): 12.6 nM
melting point: > 250 °C
EC50 (HIV strain MDR): 1000 nM
EC50 (HIV strain L100I): 3.98 nM
EC50 [1]: 2.51 nM
IIIB pSi [1]: >4.00
EC50 (HIV strain Y181C): 10 nM
EC50 (HIV strain K103N): 2 nM

SMILES: CCN(CCO)C(=O)c1cnc(Nc2ccc(C#N)cc2)nc1Nc1c(C)cc(/C=C/C#N)cc1C [Compound 55]
EC50 (HIV strain Y188L): 63.1 nM
EC50 (HIV strain L100I + K103N): 79.4 nM
EC50 (HIV strain K103N + Y181C): 100 nM
melting point: > 222 °C
EC50 (HIV strain MDR): 2000 nM
EC50 (HIV strain L100I): 15.8 nM
EC50 [1]: 1 nM
IIIB pSi [1]: 4.00
EC50 (HIV strain Y181C): 20 nM
EC50 (HIV strain K103N): 3.98 nM

SMILES: Cc1cc(/C=C/C#N)cc(C)c1Oc1nc(Nc2ccc(C#N)cc2)ncc1C(=O)NCC1CCCO1 (centres unmarked) [Compound 59]
EC50 (HIV strain Y188L): 251 nM
EC50 (HIV strain L100I + K103N): 251 nM
EC50 (HIV strain K103N + Y181C): 79.4 nM
EC50 (HIV strain MDR): 3980 nM
EC50 (HIV strain L100I): 63.1 nM
EC50 [1]: 2.51 nM
IIIB pSi [1]: 3.80
EC50 (HIV strain Y181C): 31.6 nM
EC50 (HIV strain K103N): 6.31 nM

SMILES: COCCNC(=O)c1cnc(Nc2ccc(C#N)cc2)nc1Oc1c(C)cc(/C=C/C#N)cc1C [Compound 60]
EC50 (HIV strain Y188L): 158 nM
EC50 (HIV strain L100I + K103N): 316 nM
EC50 (HIV strain K103N + Y181C): 63.1 nM
EC50 (HIV strain MDR): 10000 nM
EC50 (HIV strain L100I): 79.4 nM
EC50 [1]: 3.16 nM
IIIB pSi [1]: 3.50
EC50 (HIV strain Y181C): 31.6 nM
EC50 (HIV strain K103N): 12.6 nM

SMILES: Cc1cc(/C=C/C#N)cc(C)c1Oc1nc(Nc2ccc(C#N)cc2)ncc1C(=O)NCC#N [Compound 61]
EC50 (HIV strain Y188L): 100 nM
EC50 (HIV strain L100I + K103N): 50.1 nM
EC50 (HIV strain K103N + Y181C): 25.1 nM
EC50 (HIV strain MDR): 3160 nM
EC50 (HIV strain L100I): 20 nM
EC50 [1]: 3.16 nM
IIIB pSi [1]: >3.90
EC50 (HIV strain Y181C): 20 nM
EC50 (HIV strain K103N): 3.98 nM

SMILES: CONC(=O)c1cnc(Nc2ccc(C#N)cc2)nc1Oc1c(C)cc(/C=C/C#N)cc1C [Compound 62]
EC50 (HIV strain Y188L): 39.8 nM
EC50 (HIV strain L100I + K103N): 39.8 nM
EC50 (HIV strain K103N + Y181C): 31.6 nM
EC50 (HIV strain MDR): 3160 nM
EC50 (HIV strain L100I): 5.01 nM
EC50 [1]: 1.58 nM
IIIB pSi [1]: 4.00
EC50 (HIV strain Y181C): 20 nM
EC50 (HIV strain K103N): 2.51 nM
